According to patent publication US20060166182A1, “Tissue and organ preservation, protection and resuscitation” (The Board of Trustees of the University of Ilinois a body …, priority 2002, published 2006):

System: dogs
Assay: Myocardial tissue oxygen pressure and pH during cardiac (ventricular) fibrillation in bupivacaine and sham treated dogs
Format: in vivo, dog
Method: Non-purpose bred male hounds (22-26 kg) were used. Dogs were fasted overnight. On the day of the example, the dog was anesthetized with 5 mg/kg propofol, intubated and ventilated with 1.5% isoflurane and inspired oxygen concentration of 30%. Catheters were inserted into the femoral artery for blood pressure recording and blood gas sampling, and the femoral vein for fluid and drug administration. Sterile saline was infused intravenously (4 ml·kg^−1·hr^−1) for fluid maintenance.
An incision was made along the left 5th intercostal space and the left ventricle exposed. A Paratrend tissue probe (Codman Inc, Newark, N.J.) was calibrated on the day of the study using precision gases. The probe was 0.5 mm in diameter and 2 sensors measuring myocardial tissue oxygen pressure (PmO2) and myocardial pH (pHm) were contained in the final 2 cm. The void surrounding the pHm sensor was filled with acrylamide gel containing phenol red. Changes in hydrogen ion concentration produce color changes in phenol red, which can be detected by the pH fiber optic sensor. A fluorescence method was used to measure the partial pressure of dissolved or gaseous oxygen for the fiber optic PmO2 sensor. The 0%-90% response times for the PmO2 and pHm sensors were 78 s and 70 s, respectively. The probe was inserted into the myocardium in the region between the first and second diagonal branch of the left anterior descending coronary artery, parallel to the surface of the heart 6 mm below the surface using an 18 gauge angiocatheter as an introducer. Mechanical ventilation was adjusted to maintain arterial pCO2 at 35±2 mmHg and inspired oxygen concentration was maintained at 30%, with the balance nitrogen. Body temperature was maintained at 38° C. using a warming pad.
After equilibration of the myocardial tissue probe for 45 minutes, baseline measures of mean arterial pressure (MAP), heart rate, pmO2 and pHm were recorded and an arterial blood gas sample was measured. Each dog received an intravenous infusion of 10 mg/kg bupivacaine over 10 seconds. […] In a preliminary study (early lipid, EL), intervention at the onset of circulatory collapse included an intravenous infusion of either soy lipid emulsion (Intralipid 20%, Fresenius Kabi Clayton, Clayton, N.C.) n=3, or saline, n=3, each administered as a 4 ml/kg bolus (over 2 minutes), followed by a continuous infusion of 0.5 ml·kg^−1·min^−1 for 10 minutes. The protocol was subsequently modified to better simulate a clinical setting, where the start of the infusion might be delayed by several minutes. In this protocol (delayed lipid, DL), internal cardiac massage alone was continued for 10 minutes, then infusion of either the lipid emulsion (n=6) or saline (n=6) was begun as described above. If sinus rhythm returned, internal cardiac massage was continued until MAP reached 30 mmHg and recovery measures of pmO2 and pHm were recorded when blood pressure returned to within 10% of baseline levels. Dogs were killed at the end of the study using a euthanasia solution. The investigators were not blinded to treatment arm.
Data are reported for the DL experiments as mean±SD. pmO2 and pHm were compared between baseline and subsequent treatments within each group using repeated measures analysis of variance with Tukey's tests for post-hoc comparisons. Differences between groups for each treatment were compared by Student's t-test. The proportion of animals surviving bupivacaine challenge in each group was compared in the DL experiment using a z-test. Significance was taken as p<0.05.
There were no significant differences between groups. […] Tissue pH decreased a similar amount in half the time in sham treated dogs, and the rate of pH decrease was greater in these dogs compared to bupivacaine treated dogs.
In four dogs per group, PmO2 and pHm were allowed to decrease for 15 minutes of cardiac fibrillation at the end of the study.

[1] = dogs made hypotensive by treatment with bupivacaine
[2] = during cardiac fibrillation, mean ± SD
[3] = during cardiac fibrillation, mean ± SD, P < 0.05 compared to sham

CCCCN1CCCCC1C(=O)Nc1c(C)cccc1C (stereo not drawn) [Bupivacaine, bupivacaine]
rate of decrease in pHm, increase in PmCO2 and decrease in PmO2 compared to sham (15 minutes of cardiac fibrillation at the end of the study, four dogs per group, FIG. 1): rate of decrease in pHm and increase in PmCO2 was faster in sham treated dogs, but the rate of decrease in PmO2 was slower compared to bupivacaine treated dogs | acidosis in myocardial tissue (dogs made hypotensive by bupivacaine, prolonged hypotension, hypoperfusion and cardiac tissue hypoxia): do not develop the expected acidosis in myocardial tissue | cardiac tissue pO2 (intramyocardial probe) [1]: undetectable | systemic blood pressure (BP) after bupivacaine [1]: < 40 mmHg | PH decrease (myocardial tissue) [2]: 0.31 ± 0.08 | PmO2 decrease [2]: 52 ± 16 mmHg | Rate of decrease (PmO2) [2]: 22 ± 5 mmHg/min | Time (of PmO2 decrease) [2]: 2.5 ± 0.9 min | Rate of Decrease (myocardial pH) [3]: 0.02 ± 0.01 min − 1 | Time (of pH decrease) [3]: 13.8 ± 5.1 min | rate of decrease in PmO2 compared to sham treated dogs (ventricular fibrillation, Table 2 experiment): higher rate in bupivacaine treated compared to sham treated dogs, but this difference was not significant | factor by which the rate of decrease in pH during fibrillation was reduced (ventricular fibrillation, versus sham): four
